The subject of data set [1] is T.Tn cells. In kind it is cell-based. To be noted: for ATX-S10(Na) uptake: 3 h.
In data set [2] the test system is albumin. The following applies: cited from earlier work.
In data set [3] the test system is HDL. The following applies: cited from earlier work.
For data set [4], the system named is LDL. The following applies: cited from earlier work.
The mark [5] stands for this setting: T.Tn cells, 50 μg/ml ATX-S10(Na), 10% FCS, 37C, Fig. 4.

Read-outs that look alike come from different tables or passages of the source.

Take `CCCN(CCC)S(=O)(=O)c1ccc(C(=O)O)cc1` [Probenecid]: the “ATX-S10(Na) uptake” value in data set [1] (30 µM) is 112.3 % of control; in data set [1] (100 µM), 105.5 % of control; in data set [1] (300 µM) it was 113.1 % of control; in data set [1] (1000 µM), 115.7 % of control.
For the compound `CC[C@@]1([C@@H]2O[C@@H]([C@H]3O[C@@](O)(CO)[C@H](C)C[C@@H]3C)C[C@@H]2C)CC[C@H]([C@]2(C)CC[C@]3(C[C@H](O)[C@@H](C)[C@@H]([C@@H](C)[C@@H](OC)[C@H](C)C(=O)O)O3)O2)O1` [monensin], the “Effect of endocytosis inhibitor on cellular uptake of ATX-S10(Na)” value (shortened to “Effect of endocytosis inhibitor”) in data set [1] (setting [5]) is reported as “partially but significantly inhibited”.
As to `C=Cc1c(C)c2cc3nc(c(CC(=O)N[C@@H](CC(=O)O)C(=O)O)c4[nH]c(cc5nc(cc1[nH]2)C(C)=C5CC)c(C)c4C(=O)O)[C@@H](CCC(=O)O)[C@@H]3C` [NPe6, N-aspartyl chlorin-e6], the “Fraction bound to albumin” value in data set [2] is given as 80%. In data set [3], the “Fraction bound to HDL” value was 19%. In addition, the “Fraction bound to LDL” value in data set [4] is 1%.
`CCN(CC)CCCC(C)Nc1ccnc2cc(Cl)ccc12` (stereo not shown) [chloroquine]: the “Effect of endocytosis inhibitor” value in data set [1] is “partially but significantly inhibited”.
With `O=CC(=O)c1ccccc1` [phenylglyoxal], in data set [1] (setting [5]), the “Effect of endocytosis inhibitor” value is “partially but significantly inhibited”.
